In US11524956B2, “Alkyne substituted quinazoline compound and methods of use” (Newgen Therapeutics, Inc., priority 2011, dated 2022):

Tested on: H1975 xenograft
Assay: In vivo efficacy in NCI-H1975 xenograft mouse model
Set-up: species or system Balb/c nude mice
Conditions: KU113 10 and 20 mg/kg po qd; afatinib 20 mg/kg; erlotinib 100 mg/kg
Description: H1975 cells were purchased from ATCC were cultured in RPMI1640±10% FBS-1% P/S antibiotics. Balb/c nude mice, female, 6-8 week, 18+2 g were purchased from. Shanghai Laboratory Animal Co. Ltd. The purchased mice were adapted to the environment for 7 days before use, and were housed at 22-25° C. with humidity 40-70%, and light cycle with fluorescent light for 12-hour light (8:00-20:00) 12-hour dark.
Formulation: Erlotinib, afatinib (BIBW2992), and KU113 were dissolved in 2% DMA and 98% (40% HP-β-CD deionized water).
The cancer cells (H1975) were amplified and implanted into the nude mice (right flank) with 5.0×10^6 cells in PBS and 1:1 with matrigel in a total volume of 0.1 ml/mouse. […]
The mice were monitored twice daily for appearance and behavior, and for signs of morbidity and/or mortality. The tumor volume was measured twice a week, and the body weight was measured immediately before measuring the tumor volume throughout the whole study. […]
Tumor sizes were measured twice weekly in two dimensions using a caliper, and the volume was expressed in mm^3 using the formula: V=½×a×b^2 where a and b are the long and short diameters of the tumor, respectively. […]

## CN(C)C/C=C/C(=O)Nc1cc2c(Nc3ccc(F)c(Cl)c3)ncnc2cc1C#C[C@@H]1[C@H]2COC[C@@H]12 [Example 4, (E)-N-(4-(3-chloro-4-fluorophenylamino)-7-(2-((1R,5S,6s)-3-oxa-bicyclo[3.1.0]hexan-6-yl)ethynyl)quinazolin-6-yl)-4-(dimethylamino)but-2-enamide]
  anticancer effect on H1975 xenograft versus comparators: significantly more effective than erlotinib; and comparable with afatinib
